Our source for the Ki values is patent US7652020B2, “Compounds for the treatment of inflammatory disorders” (Schering Corporation, priority 2004, dated 2010).

Read-outs that look alike come from different tables or passages of the source. Bounds are passed on as bounds.

As usually defined, the Ki is a dissociation constant, usually derived from enzyme kinetics or from competition with a known ligand.

This test deals with T1, purified catalytic domain of recombinant human TACE (rhTACEc) (Homo sapiens, UniProt P78536, N452Q/S266A).
T1 construct: Residue 215 to 477 with two mutation (S266A and N452Q) and a 6×His tail; 6xHis (C); made in house; host or cells: baculovirus/Hi5 insect cells
The test is described as follows: TACE kinetic assay: cleavage of internally quenched peptide substrate SPDL-3, fluorescence. In kind it is biochemical. The method, then: TACE activity is determined by a kinetic assay measuring the rate of increase in fluorescent intensity generated by TACE catalyzed cleavage of an internally quenched peptide substrate (SPDL-3). […] It is purified from the baculovirus/Hi5 cells expression system using affinity chromatography. […] MCA is (7-Methoxycoumarin-4-yl)acetyl. Dpa is N-3-(2,4-Dinitrophenyl)-L-2,3-diaminopropionyl.
A 50 μl assay mixture contains 20 mM HEPES, pH 7.3, 5 mM CaCl2, 100 μM ZnCl2, 2% DMSO, 0.04% Methylcellulose, 30 μM SPDL-3, 70 pM rhTACEc and a test compound. RhTACEc is pre-incubated with the testing compound for 90 min. at 25° C. Reaction is started by addition of the substrate. […] Rate of enzymatic reaction is shown as Units per second. Effect of a test compound is shown as % of TACE activity in the absence of the compound.

Setting [1] is: TACE, representative compounds, numeric values, read-out: Ki.
Where [2] appears, read: TACE inhibitory activity, class symbols, read-out: Ki.

T1 sequence (P78536 215-477 S266A/N452Q): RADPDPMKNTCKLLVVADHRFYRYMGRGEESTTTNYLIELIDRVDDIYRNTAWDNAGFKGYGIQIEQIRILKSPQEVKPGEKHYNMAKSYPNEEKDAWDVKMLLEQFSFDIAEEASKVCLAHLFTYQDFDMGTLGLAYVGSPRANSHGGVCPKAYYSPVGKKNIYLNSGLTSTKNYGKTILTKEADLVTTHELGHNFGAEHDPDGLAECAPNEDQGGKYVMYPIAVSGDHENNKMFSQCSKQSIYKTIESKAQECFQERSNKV

For `CCNc1nc(C2c3ccccc3CN2C(=O)[C@H](O)[C@@H](O)C(=O)N[C@H](C)c2ccc(-n3cccn3)cc2)cs1` (stereo partly drawn), the inhibition constant Ki under setting [1] turned out to be 0.16 nM.
On the same count and under the same terms, next, `CCNc1nc(C2c3ccccc3CCN2C(=O)[C@H](O)[C@@H](O)C(=O)N[C@H](C)c2ccc(-n3cccn3)cc2)cs1` (stereo partly drawn): 0.3 nM.
`Cc1nc2ccccc2n1Cc1ccc(CNC(=O)[C@H](O)[C@@H](O)C(=O)N2Cc3ccccc3C2)s1`: the Ki (Ki (nM), TACE, representative compounds, numeric values) turned out to be 0.5 nM.
As for `CNc1nc([C@H]2c3ccccc3CN2C(=O)[C@H](O)[C@@H](O)C(=O)N[C@H](C)c2ccc(-n3cccn3)cc2)cs1`, the inhibition constant Ki under setting [1] is 0.5 nM.
For the molecule `CCNc1nnc(C2c3ccccc3CN2C(=O)[C@H](O)[C@@H](O)C(=O)N[C@H](C)c2ccc(-n3cccn3)cc2)o1` (stereo partly drawn), the Ki under setting [1] came to 0.56 nM.
As for `C[C@@H](NC(=O)[C@H](O)[C@@H](O)C(=O)N1CC=CC1c1cccc(Cl)c1)c1ccc(-n2cccn2)cc1` (stereo partly drawn), the Ki under setting [1] is 0.6 nM.
The same measure, in the same setting: next, `C[C@@H](NC(=O)[C@H](O)[C@@H](O)C(=O)N1Cc2ccncc2C1)C1CCN(c2ccccc2OC(F)(F)F)CC1`: 0.74 nM.
The same measure, in the same setting: as for `Cc1nc2ccccc2n1Cc1csc(CNC(=O)[C@H](O)[C@@H](O)C(=O)N2CCCC2c2cccc(N(C)C)c2)n1` (stereo partly drawn), the figure is 1 nM.
As to `Cc1cccc(C)c1Cc1csc(CNC(=O)[C@H](O)[C@@H](O)C(=O)N2CCCC2c2cccc(CN3CCCC3)c2)n1` (stereo partly drawn), the Ki under setting [1] is 1.4 nM.
Turning to `Cc1cccc(C)c1Cc1csc(CNC(=O)[C@H](O)[C@@H](O)C(=O)N2CCCC2c2cccc(N3CCN(C)CC3)c2)n1` (stereo partly drawn), the Ki under setting [1] was 2.5 nM.
`O=C(NCc1ccn(Cc2ccccc2Cl)n1)[C@H](O)[C@@H](O)C(=O)N1CCC[C@@H]1c1cccc(Cl)c1`: the inhibition constant (Ki) under setting [1] turned out to be 2.7 nM.
On the same count and under the same terms, next, `CC#CCOc1cc([C@@H](C)NC(=O)[C@H](O)[C@@H](O)C(=O)N2CCC[C@@H]2c2csc(NC(C)C)n2)ccc1-n1cccn1`: 2.9 nM; `CCOC(=O)c1ccccc1-c1ccc(CNC(=O)[C@H](O)[C@@H](O)C(=O)N2CCC[C@@H]2c2ccccc2)cc1`: 3.6 nM.
On to `C[C@@H](NC(=O)[C@H](O)[C@@H](O)C(=O)N1Cc2ccccc2C1)c1ccc(-c2ccsc2)cc1`, for which the Ki under setting [1] was 3.8 nM.
`CCNc1nnc([C@H]2c3ccccc3CN2C(=O)[C@H](O)[C@@H](O)C(=O)N[C@H](C)c2ccc(-n3cccn3)cc2)o1` (stereo in doubt) [Compound 2527]: the Ki under setting [2] was < 20 nM.
As to `Cc1noc([C@H]2c3ccccc3CN2C(=O)[C@H](O)[C@@H](O)C(=O)N[C@H](C)c2ccc(-n3cccn3)cc2)n1` (stereo in doubt) [Compound 2528], under setting [2], the Ki is < 20 nM.
Still for that read-out and setting: as for `C[C@@H](NC(=O)[C@H](O)[C@@H](O)C(=O)N1CCC[C@@H]1c1cccc(Cl)c1)c1ccc(-n2cccn2)cc1` [Compound 944], the figure is < 20 nM; as for `N#Cc1cc(F)ccc1N1CCC(CNC(=O)[C@H](O)[C@@H](O)C(=O)N2Cc3cccnc3C2)CC1` [Compound 2003], 20 to 100 nM.
As for `N#Cc1cc(F)ccc1N1CCC(CNC(=O)[C@H](O)[C@@H](O)C(=O)N2Cc3ccncc3C2)CC1` [Compound 2007], the Ki under setting [2] is < 20 nM.
On the same count and under the same terms, as for `C[C@@H](NC(=O)[C@H](O)[C@@H](O)C(=O)N1Cc2ccc[n+]([O-])c2C1)c1ccc(-n2cccn2)cc1` [Compound 2030], the figure is 20 to 100 nM.
In the case of `C[C@@H](NC(=O)[C@](C)(O)[C@@H](O)C(=O)N1Cc2cccnc2C1)c1ccc(-n2cccn2)cc1` [Compound 2031], the inhibition constant (Ki) under setting [2] was < 20 nM.
The same measure, in the same setting: next, `C[C@@H](NC(=O)[C@H](O)[C@@H](O)C(=O)N1Cc2cccnc2C1)c1ccc(-n2cccn2)cc1` [Compound 2032]: < 20 nM; `CCOc1cc(F)ccc1-c1ccc(CNC(=O)[C@](C)(O)[C@@H](O)C(=O)N2Cc3cccnc3C2)cc1` [Compound 2033]: < 20 nM; `C[C@](O)(C(=O)NCC1CCN(c2ccc(F)cc2C#N)CC1)[C@@H](O)C(=O)N1Cc2cccnc2C1` [Compound 2034]: 20 to 100 nM.
`O=C(NCC1CCN(c2ccccc2OC(F)(F)F)CC1)[C@H](O)[C@@H](O)C(=O)N1Cc2cccnc2C1` [Compound 2035]: under setting [2], the Ki was < 20 nM.
For `CCOc1cc(F)ccc1-c1ccc(CNC(=O)[C@H](O)[C@@H](O)C(=O)N2Cc3cccnc3C2)cc1` [Compound 2036], the Ki under setting [2] is < 20 nM.
In the case of `O=C(NCc1ccc(-c2ccccc2)cc1)[C@H](O)[C@@H](O)C(=O)N1Cc2cccnc2C1` [Compound 2037], the Ki under setting [2] is 20 to 100 nM.
For `C[C@](O)(C(=O)NCC1CCN(c2ccccc2OC(F)(F)F)CC1)[C@@H](O)C(=O)N1Cc2cccnc2C1` [Compound 2038], under setting [2], the Ki was 20 to 100 nM.
On the same count and under the same terms, next, `C[C@@H](NC(=O)[C@](C)(O)[C@@H](O)C(=O)N1Cc2ccncc2C1)c1ccc(-n2cccn2)cc1` [Compound 2039]: < 20 nM.
Take `O=C(NCC1CCN(c2ccccc2OC(F)(F)F)CC1)[C@H](O)[C@@H](O)C(=O)N1Cc2ccncc2C1` [Compound 2040]: under setting [2], the Ki was < 20 nM.
Still for that read-out and setting: as for `C[C@](O)(C(=O)NCC1CCN(c2ccc(F)cc2C#N)CC1)[C@@H](O)C(=O)N1Cc2ccncc2C1` [Compound 2041], the figure is 20 to 100 nM; as for `CCOc1cc(F)ccc1-c1ccc(CNC(=O)[C@H](O)[C@@H](O)C(=O)N2Cc3ccncc3C2)cc1` [Compound 2042], < 20 nM.
As to `C[C@@H](NC(=O)[C@H](O)[C@@H](O)C(=O)N1Cc2cnc(N)nc2C1)c1ccc(-n2cccn2)cc1` [Compound 2043], the Ki under setting [2] is < 20 nM.
Regarding `C[C@@H](NC(=O)[C@H](O)[C@@H](O)C(=O)N1Cc2cncnc2C1)c1ccc(-n2cccn2)cc1` [Compound 2044], the inhibition constant Ki under setting [2] was < 20 nM.
For the molecule `Cc1ncc2c(n1)CN(C(=O)[C@H](O)[C@@H](O)C(=O)N[C@H](C)c1ccc(-n3cccn3)cc1)C2` [Compound 2045], the Ki under setting [2] is 100 to 1000 nM.
On the same count and under the same terms, next, `C[C@@H](NC(=O)[C@H](O)[C@@H](O)C(=O)N1Cc2cncnc2C1(C)C)c1ccc(-n2cccn2)cc1` [Compound 2046]: 100 to 1000 nM.
Still for that read-out and setting: next, `C[C@@H](NC(=O)[C@](C)(O)[C@@H](O)C(=O)N1Cc2cncnc2C1(C)C)c1ccc(-n2cccn2)cc1` [Compound 2047]: 100 to 1000 nM.
`CC1c2ncncc2CN1C(=O)[C@H](O)[C@@H](O)C(=O)N[C@H](C)c1ccc(-n2cccn2)cc1` (stereo partly drawn) [Compound 2049]: under setting [2], the Ki was in the range of 20 to 100 nM.
The same measure, in the same setting: next, `CC1c2cncnc2CN1C(=O)[C@H](O)[C@@H](O)C(=O)N[C@H](C)c1ccc(-n2cccn2)cc1` (stereo partly drawn) [Compound 2050]: 20 to 100 nM.
Still for that read-out and setting: as for `CC1c2cnc(N)nc2CN1C(=O)[C@H](O)[C@@H](O)C(=O)N[C@H](C)c1ccc(-n2cccn2)cc1` (stereo partly drawn) [Compound 2051], the figure is 20 to 100 nM.
The same measure, in the same setting: as for `CNc1ncc2c(n1)CN(C(=O)[C@H](O)[C@@H](O)C(=O)N[C@H](C)c1ccc(-n3cccn3)cc1)C2` [Compound 2052], the figure is < 20 nM; as for `CNc1ncc2c(n1)C(C)N(C(=O)[C@H](O)[C@@H](O)C(=O)N[C@H](C)c1ccc(-n3cccn3)cc1)C2` (stereo partly drawn) [Compound 2053], 20 to 100 nM.
For `CNc1ncc2c(n1)CN(C(=O)[C@H](O)[C@@H](O)C(=O)N[C@H](C)c1ccc(-n3cccn3)cc1)C2C` (stereo partly drawn) [Compound 2054], the Ki under setting [2] was < 20 nM.
Same read-out and setting: as for `Cc1nc2c(s1)CN(C(=O)[C@H](O)[C@@](C)(O)C(=O)N[C@H](C)c1ccc(-n3cccn3)cc1)C2` [Compound 2057], the figure is < 20 nM; as for `C[C@@H](NC(=O)[C@H](O)[C@@H](O)C(=O)N1CCc2[nH]ncc2C1)c1ccc(-n2cccn2)cc1` [Compound 2073], 20 to 100 nM.
